From ChEMBL document CHEMBL1201862, “PubChem BioAssay data set” (2004)
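Growth conditions: 96-well plates. Treatment: test compound, 48 hours, 5 concentrations. Analysis: linear interpolation between bracketing concentrations; unreached endpoints set to highest concentration. Abbreviation: GI50, concentration required for 50% inhibition of growth.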 Active and inactive are the calls of the source. Rule as the data show it: active = GI50 up to about 1.1 µM and inactive = higher.

How the values were obtained:
Experiment in all cases: NCI anticancer screen, dose series, 48 h
CCRF-CEM = tested on: CCRF-CEM
SNB-19 = tested on: SNB-19
HL-60 = tested on: HL-60
MDA-MB-435 = tested on: MDA-MB-435
UACC-62 = tested on: UACC-62
Malme-3M = tested on: Malme-3M
HCT-15 = tested on: HCT-15
NCI-H522 = tested on: NCI-H522
NCI-H23 = tested on: NCI-H23
HOP-62 = tested on: HOP-62
A549 = tested on: A549
MOLT-4 = tested on: MOLT-4
786-0 = tested on: 786-0
T47D = tested on: T47D
UACC-257 = tested on: UACC-257
HOP-92 = tested on: HOP-92
SF-539 = tested on: SF-539
KM12 = tested on: KM12
MCF7 = tested on: MCF7

SMILES	GI50 (CCRF-CEM)	GI50 (SNB-19)	GI50 (HL-60)	GI50 (MDA-MB-435)	GI50 (UACC-62)	GI50 (Malme-3M)	GI50 (HCT-15)	GI50 (NCI-H522)	GI50 (NCI-H23)	GI50 (HOP-62)	GI50 (A549)	GI50 (MOLT-4)	GI50 (786-0)	GI50 (T47D)	GI50 (UACC-257)	GI50 (HOP-92)	GI50 (SF-539)	GI50 (KM12)	GI50 (MCF7)
Cc1cccc(/N=N/C(=O)NNc2cccc(C)c2C)c1C	> 10 µM (inactive)	45.8 µM (inactive)	24.5 µM (inactive)	26.1 µM (inactive)	29.5 µM (inactive)	21.7 µM (inactive)	38.5 µM	24.7 µM (inactive)	32.7 µM (inactive)	20.7 µM (inactive)	31.2 µM (inactive)	> 10 µM (inactive)	35.2 µM (inactive)	27.2 µM (inactive)	34.7 µM (inactive)	–	–	–	–
S=c1sc2sc(=S)sc2s1	6.08 µM (inactive)	> 100 µM (inactive)	5.92 µM (inactive)	–	37.2 µM (inactive)	> 100 µM (inactive)	26.1 µM	33.1 µM (inactive)	–	> 100 µM (inactive)	31.6 µM (inactive)	28.8 µM (inactive)	68.4 µM (inactive)	–	> 100 µM (inactive)	57.9 µM (inactive)	23.9 µM (inactive)	> 100 µM (inactive)	–
O=C(O)C1(C(=O)O)CC1(C(=O)O)C(=O)O	> 100 µM (inactive)	> 100 µM (inactive)	> 100 µM (inactive)	–	> 100 µM (inactive)	> 100 µM (inactive)	> 100 µM	> 100 µM (inactive)	> 100 µM (inactive)	> 100 µM (inactive)	> 100 µM (inactive)	> 100 µM (inactive)	> 100 µM (inactive)	> 100 µM (inactive)	> 100 µM (inactive)	–	> 100 µM (inactive)	> 100 µM (inactive)	> 100 µM (inactive)
C=C(C#N)C1OCC2OC(C)(C)OC21 (stereo not given)	16.5 µM (inactive)	> 100 µM (inactive)	18.2 µM (inactive)	–	17.3 µM (inactive)	–	16.9 µM	–	18.6 µM (inactive)	> 100 µM (inactive)	36 µM (inactive)	15.7 µM (inactive)	20.2 µM (inactive)	–	15.5 µM (inactive)	24 µM (inactive)	16.1 µM (inactive)	33.3 µM (inactive)	–
COC1=C(OC)CCC(/C(C#N)=C/c2ccc(OC)c(OC)c2)=C1	> 100 µM (inactive)	–	–	–	> 100 µM (inactive)	–	> 100 µM	21.4 µM (inactive)	79.1 µM (inactive)	31.1 µM (inactive)	> 100 µM (inactive)	> 100 µM (inactive)	67.5 µM (inactive)	–	> 100 µM (inactive)	49.8 µM (inactive)	59.3 µM (inactive)	> 100 µM (inactive)	–
CN(C(=S)Cc1ccc(Cl)c(Cl)c1)C1CCCC[C@@H]1N1CCCC1 (stereo not given in full)	–	> 100 µM (inactive)	28.5 µM (inactive)	26.6 µM (inactive)	17.5 µM (inactive)	–	58.1 µM	–	44.2 µM (inactive)	54.2 µM (inactive)	63.4 µM (inactive)	51.8 µM (inactive)	21.9 µM (inactive)	38 µM (inactive)	–	–	55.7 µM (inactive)	44.6 µM (inactive)	–
CCCCCCCCCCCCCC1CCC(CC)N1 (stereo not given)	5.2 µM (inactive)	16.9 µM (inactive)	5.14 µM (inactive)	–	6.98 µM (inactive)	18.4 µM (inactive)	6.52 µM	18.2 µM (inactive)	18.6 µM (inactive)	7.1 µM (inactive)	20.8 µM (inactive)	11.9 µM (inactive)	17.5 µM (inactive)	–	20.7 µM (inactive)	16.2 µM (inactive)	17.6 µM (inactive)	17.2 µM (inactive)	–
Nc1nc2c(c(=O)[nH]1)C(c1ccccc1)CC(=O)N2 (stereo not given)	–	> 100 µM (inactive)	–	> 100 µM (inactive)	> 100 µM (inactive)	> 100 µM (inactive)	> 100 µM	–	> 100 µM (inactive)	> 100 µM (inactive)	> 100 µM (inactive)	> 100 µM (inactive)	> 100 µM (inactive)	> 100 µM (inactive)	> 100 µM (inactive)	–	> 100 µM (inactive)	> 100 µM (inactive)	> 100 µM (inactive)
Cc1ccc(/N=c2/oc3c(ccc4ccccc43)nc2Nc2ccc(C)cc2)cc1	> 100 µM (inactive)	> 100 µM (inactive)	> 100 µM (inactive)	> 100 µM (inactive)	> 100 µM (inactive)	> 100 µM (inactive)	> 100 µM	> 100 µM (inactive)	> 100 µM (inactive)	> 100 µM (inactive)	> 100 µM (inactive)	> 100 µM (inactive)	> 100 µM (inactive)	> 100 µM (inactive)	> 100 µM (inactive)	> 100 µM (inactive)	> 100 µM (inactive)	> 100 µM (inactive)	–
CSC1=C(C#N)C(=O)N(c2ccc(C)cc2)C(=S)C1C#N (stereo not given)	> 100 µM (inactive)	> 100 µM (inactive)	63.8 µM (inactive)	> 100 µM (inactive)	> 100 µM (inactive)	> 100 µM (inactive)	> 100 µM	> 100 µM (inactive)	–	> 100 µM (inactive)	> 100 µM (inactive)	> 100 µM (inactive)	> 100 µM (inactive)	–	> 100 µM (inactive)	33.4 µM (inactive)	> 100 µM (inactive)	> 100 µM (inactive)	> 100 µM (inactive)
Cc1c(NC(=O)CCCl)c(=O)oc2c(C)c3occc(=O)c3cc12	30.9 µM (inactive)	75.5 µM (inactive)	57.7 µM (inactive)	–	–	23.5 µM (inactive)	62.4 µM	–	94.4 µM (inactive)	> 100 µM (inactive)	> 100 µM (inactive)	76.9 µM (inactive)	> 100 µM (inactive)	77.4 µM (inactive)	60.1 µM (inactive)	28.9 µM (inactive)	–	> 100 µM (inactive)	67.5 µM (inactive)
Brc1ccc(C2=NCSC(c3ccc(Br)cc3)=N2)cc1	–	31.8 µM (inactive)	11 µM (inactive)	28.8 µM (inactive)	5.3 µM (inactive)	35.2 µM (inactive)	28.2 µM	22.2 µM (inactive)	32 µM (inactive)	39.1 µM (inactive)	32.3 µM (inactive)	16.1 µM (inactive)	10.7 µM (inactive)	–	19.1 µM (inactive)	37.7 µM (inactive)	31.5 µM (inactive)	24.4 µM (inactive)	32.2 µM (inactive)
COc1ccc2c(c1)O[C@@H]1[C@@H](OC3OC(CO)C(O)C(O)C3O)Oc3cc(OC)c(OC)cc3[C@]1(O)C2=O (stereo not given in full)	> 100 µM (inactive)	> 100 µM (inactive)	1.11 µM (active)	> 100 µM (inactive)	> 100 µM (inactive)	> 100 µM (inactive)	> 100 µM	> 100 µM (inactive)	> 100 µM (inactive)	> 100 µM (inactive)	> 100 µM (inactive)	> 100 µM (inactive)	> 100 µM (inactive)	> 100 µM (inactive)	> 100 µM (inactive)	> 100 µM (inactive)	> 100 µM (inactive)	> 100 µM (inactive)	–
CNC(=O)c1nc[nH]c1/N=N/N(C)N	> 10 µM (inactive)	–	–	> 100 µM (inactive)	> 100 µM (inactive)	> 100 µM (inactive)	> 100 µM	> 100 µM (inactive)	> 100 µM (inactive)	> 100 µM (inactive)	> 100 µM (inactive)	> 100 µM (inactive)	> 100 µM (inactive)	> 100 µM (inactive)	> 100 µM (inactive)	–	> 100 µM (inactive)	40.5 µM (inactive)	–
CCN(CC)c1c(C)nnn1C1OC(COC(C)=O)C(OC(C)=O)C(OC(C)=O)C1OC(C)=O (stereo not given)	> 100 µM (inactive)	> 100 µM (inactive)	> 100 µM (inactive)	–	> 100 µM (inactive)	> 100 µM (inactive)	38.6 µM	> 100 µM (inactive)	> 100 µM (inactive)	> 100 µM (inactive)	> 100 µM (inactive)	> 100 µM (inactive)	> 100 µM (inactive)	–	> 100 µM (inactive)	70.8 µM (inactive)	> 100 µM (inactive)	> 100 µM (inactive)	–
CCOC(=O)c1cn2c(ccc3sc4ccccc4c(=O)c32)n1	> 100 µM (inactive)	> 100 µM (inactive)	> 100 µM (inactive)	> 100 µM (inactive)	–	> 100 µM (inactive)	> 100 µM	> 100 µM (inactive)	> 100 µM (inactive)	> 100 µM (inactive)	> 100 µM (inactive)	> 100 µM (inactive)	> 100 µM (inactive)	–	> 100 µM (inactive)	87.5 µM (inactive)	> 100 µM (inactive)	> 100 µM (inactive)	84.3 µM (inactive)
Cc1c2cc[n+](C)cc2c(C)c2c1oc1ccccc12	3.18 µM (inactive)	0.893 µM (active)	12 µM (inactive)	7.83 µM (inactive)	5.62 µM (inactive)	1.6 µM (inactive)	> 87.3 µM	1.95 µM (inactive)	2.24 µM (inactive)	2.06 µM (inactive)	1.95 µM (inactive)	2.74 µM (inactive)	1.17 µM (inactive)	–	4.29 µM (inactive)	6.5 µM (inactive)	2.24 µM (inactive)	1.62 µM (inactive)	6.37 µM (inactive)
O=c1c(C(c2ccc(-c3ccccc3)cc2)c2c(O)oc3ccccc3c2=O)c(O)oc2ccccc12	31.3 µM (inactive)	30.5 µM (inactive)	23.2 µM (inactive)	22.8 µM (inactive)	19.3 µM (inactive)	24.7 µM (inactive)	19.1 µM	24 µM (inactive)	24.8 µM (inactive)	24.1 µM (inactive)	–	33.5 µM (inactive)	26.9 µM (inactive)	40 µM (inactive)	34.4 µM (inactive)	19.1 µM (inactive)	–	19.6 µM (inactive)	–
